In patent US20110046102A1, “AZABICYCLIC COMPOUNDS, PREPARATION THEREOF AND USE OF SAME AS DRUGS, ESPECIALLY BETA-LACTAMASE INHIBITORS” (Novexel, priority 2008, published 2011):
Counter-ions that a name gives are not always drawn.

Tests used:
[1] = molecular target: T1, E. cloacae P99 β-lactamase (Enterobacter cloacae, UniProt P05364); assay: β-lactamase inhibiting activity on isolated enzyme (Nitrocefin hydrolysis), P99; assay type: biochemical; conditions: 5 min pre-incubation, 100 μM Nitrocefin, pH 7.0, 37° C., mean of at least 2 experiments, read-out: IC50 enzyme inhibition
T1 construct: The β-lactamases are isolated from bacterial strains resistant to penicillins and cephalosporins; endogenous in cells; host or cells: E. cloacae 293HT6 (soluble fraction of French-press lysate)
T1 sequence (P05364 21-381): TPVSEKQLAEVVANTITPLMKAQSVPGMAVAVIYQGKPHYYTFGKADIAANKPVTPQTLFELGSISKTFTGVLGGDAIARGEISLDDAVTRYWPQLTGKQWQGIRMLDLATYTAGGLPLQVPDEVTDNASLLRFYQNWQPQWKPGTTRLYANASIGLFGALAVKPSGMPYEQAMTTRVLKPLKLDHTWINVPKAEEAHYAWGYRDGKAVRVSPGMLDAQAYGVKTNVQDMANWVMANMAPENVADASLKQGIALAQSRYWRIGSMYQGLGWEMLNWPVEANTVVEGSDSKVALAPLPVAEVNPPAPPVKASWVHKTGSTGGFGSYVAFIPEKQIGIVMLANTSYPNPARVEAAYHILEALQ
Experimental: (§1) A. Preparation of Tem-1 and P99 β-lactamases
(§2) The β-lactamases are isolated from bacterial strains resistant to penicillins and cephalosporins (Tem 1 and P99 are respectively produced by E. coli 250HT21 and E.Cloacae 293 HT6).
(§3) The bacteria are cultured in 37g/l brain-heart infusion (DIFCO), at 37° C. They are harvested at the end of the exponential phase, cooled and centrifuged. The bacterial residues are dissolved in 50 mM sodium phosphate buffer pH 7.0 and again centrifuged. The bacteria are dissolved in two volumes of this same buffer and lysed using a French-Press held at 4° C. After centrifuging 1 h at 100 000g, at 4° C., the supernatants containing the soluble fraction of the bacterial extracts are collected and frozen to −80° C.
(§4) B. Determination β-lactamase Activity
(§5) The method uses Nitrocefin (OXOID) as substrate, a chromogenic cephalosporin, whose hydrolysis product by β-lactamases is red and absorbed at 485 nm.
(§6) β-lactamase activity is determined kinetically by measuring the variation in absorbance at 485 nm resulting from hydrolysis of the substrate on a plate spectrophotometer (Spectra Max Plus by Molecular Devices). Experiments are conducted at 37° C. The quantity of enzyme was normalized and measurements are taken at initial velocity.
(§7) C. Determination of β-Lactamase Inhibiting Activity
(§8) The measurements are taken with pre-incubation of the enzyme and of the inhibitor (5 min). The products are assayed at 11 concentrations. The reaction mixture contains 100 μM Nitrocefin and 50 mM sodium phosphate buffer, pH 7.0, and 0.1 mg/mL bovine serum albumin.
(§9) Hydrolysis velocities are measured with and without inhibitor. The inhibitor concentration is determined which inhibits 50% of the Nitrocefin hydrolysis reaction by the enzyme (IC50). Data is processed using GraFit software (Erithacus Software). The IC50 values are the mean of the IC50s obtained in at least 2 different experiments.

[2] = test system: E. coli 250BE6 (TEM3); assay: MIC of ceftazidime alone or with inhibitor, micro-dilution in liquid medium, strain 250BE6; assay type: cell-based; conditions: 24 h; for MIC of CAZ in combination with inhibitor (CAZ-Inhibitor): E. coli 250BE6 TEM3, inhibitor at constant 4 μg/mL
Experimental: (§10) II/ The evidenced β-lactamase inhibiting activity potentialises the antibacterial activity of antibiotics of β-lactam type, and therefore leads to a synergic effect, as is shown by the results given below which express the minimum inhibitory concentration in vitro (MIC in μg/ml), against a certain number of pathogenic microorganisms, and of combinations of ceftazidime (<<CAZ >>) with formula (I) compounds at a concentration of 4 mg/l. Operations are as follows using the so-called micro-dilution method in liquid medium.
(§11) A series of β-lactam concentrations are prepared in the presence of a constant concentration (4 mg/l) of the product to be assayed, each is then seeded with various bacterial strains.
(§12) After 24-hour incubation in an oven at 37° C. growth inhibition is assessed via the lack of any bacterial growth, which allows determination of the minimum inhibitory concentrations (MICs) for each strain, expressed in milligrams/l.

[3] = test system: E. cloacae 293HT6 (P99 AmpC); assay: MIC of ceftazidime alone or with inhibitor, micro-dilution in liquid medium, strain 293HT6; assay type: cell-based; conditions: 24 h; for MIC of CAZ in combination with inhibitor (CAZ-Inhibitor): inhibitor at constant 4 μg/mL
Experimental: as §10, §11, §12

[4] = test system: C. freundii 261GR6 (AmpC); assay: MIC of ceftazidime alone or with inhibitor, micro-dilution in liquid medium, strain 261GR6; assay type: cell-based; conditions: 24 h; for MIC of CAZ in combination with inhibitor (CAZ-Inhibitor): inhibitor at constant 4 μg/mL
Experimental: as §10, §11, §12

[5] = test system: E. cloacae 293HT4 (AmpC); assay: MIC of ceftazidime alone or with inhibitor, micro-dilution in liquid medium, strain 293HT4; assay type: cell-based; conditions: 24 h; for MIC of CAZ in combination with inhibitor (CAZ-Inhibitor): inhibitor at constant 4 μg/mL
Experimental: as §10, §11, §12

[6] = molecular target: T2, E. coli TEM1 β-lactamase (Escherichia coli, UniProt P62593); assay: β-lactamase inhibiting activity on isolated enzyme (Nitrocefin hydrolysis), TEM1; assay type: biochemical; conditions: 5 min pre-incubation, 100 μM Nitrocefin, pH 7.0, 37° C., mean of at least 2 experiments, read-out: IC50 enzyme inhibition
T2 construct: The β-lactamases are isolated from bacterial strains resistant to penicillins and cephalosporins; endogenous in cells; host or cells: E. coli 250HT21 (soluble fraction of French-press lysate)
T2 sequence (P62593 24-286 limits assumed): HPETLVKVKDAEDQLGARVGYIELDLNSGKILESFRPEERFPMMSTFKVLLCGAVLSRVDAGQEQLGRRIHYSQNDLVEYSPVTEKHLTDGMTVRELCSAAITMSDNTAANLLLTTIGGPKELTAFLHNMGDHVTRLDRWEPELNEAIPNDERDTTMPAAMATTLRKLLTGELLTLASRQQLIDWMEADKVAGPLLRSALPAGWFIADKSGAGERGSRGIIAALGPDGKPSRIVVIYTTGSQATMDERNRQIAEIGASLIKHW
Experimental: as §1, §2, §3, §4, §5, §6, §7, §8, §9

[7] = Enterobacter cloacae, no inhibitor, read-out: MIC CAZ alone

| Compound | IC50 [1] | MIC of CAZ in combination with inhibitor (CAZ-Inhibitor) [2] | MIC of CAZ in combination with inhibitor (CAZ-Inhibitor) [3] | MIC of CAZ in combination with inhibitor (CAZ-Inhibitor) [4] | MIC of CAZ in combination with inhibitor (CAZ-Inhibitor) [5] | IC50 [6] | MIC ([2]; Escherichia coli, read-out: MIC CAZ alone) | MIC [3, 7] | MIC ([4]; Citrobacter freundii, no inhibitor, read-out: MIC CAZ alone) | MIC [5, 7] |
| --- | --- | --- | --- | --- | --- | --- | --- | --- | --- | --- |
| NC(=O)[C@@H]1CC[C@@H]2CN1C(=O)N2OC(F)(F)C(=O)O [Example 3, Sodium salt of trans-(1R,2S,5R)-6-(1,1-difluoro-2-hydroxy-2-oxoethoxy)-7-oxo-1,6-diazabicyclo[3.2.1]octane-2-carboxamide] | 2200 nM | 0.25 µg/mL | 1 µg/mL | 1 µg/mL | 0.5 µg/mL | 0.8 nM | – | – | – | – |
| CC(C)(O/N=C(\C(=O)N[C@@H]1C(=O)N2C(C(=O)[O-])=C(C[n+]3ccccc3)CS[C@H]12)c1csc(N)n1)C(=O)O [CAZ, ceftazidime, reference compound] | – | – | – | – | – | – | > 32 µg/mL | > 32 µg/mL | > 32 µg/mL | > 32 µg/mL |
| NC(=O)[C@@H]1CC[C@@H]2CN1C(=O)N2OCC(=O)O [Example 1, trans-(1R,2S,5R)-6-(2-hydroxy-2-oxoethoxy)-7-oxo-1,6-diazabicyclo[3.2.1]octane-2-carboxamide, reference compound] | 54000 nM | 2 µg/mL | >32 µg/mL | >32 µg/mL | >32 µg/mL | 720 nM | – | – | – | – |
| NC(=O)[C@@H]1CC[C@@H]2CN1C(=O)N2OC(F)C(=O)O (mixture of isomers) [Example 2, trans-(1R,2S,5R)-6-(1-fluoro-2-hydroxy-2-oxoethoxy)-7-oxo-1,6-diazabicyclo[3.2.1]octane-2-carboxamide] | 4600 nM | 0.25 µg/mL | 8 µg/mL | 4 µg/mL | 8 µg/mL | 2 nM | – | – | – | – |
